Laboratory results taken from ChEMBL document CHEMBL2074335, “Cloning and functional characterization of the multidrug resistance-associated protein (MRP1/ABCC1) from the cynomolgus monkey” (Mol Cancer Ther, 2003).

Target: Multidrug resistance-associated protein 1 (Homo sapiens, UniProt P33527)
Test: TP_TRANSPORTER: drug resistance in MRP1-expressing PEAKSTABEL cells
Type: functional, cell-based
Details: peakstable

Sequence of Multidrug resistance-associated protein 1 (P33527 whole entry): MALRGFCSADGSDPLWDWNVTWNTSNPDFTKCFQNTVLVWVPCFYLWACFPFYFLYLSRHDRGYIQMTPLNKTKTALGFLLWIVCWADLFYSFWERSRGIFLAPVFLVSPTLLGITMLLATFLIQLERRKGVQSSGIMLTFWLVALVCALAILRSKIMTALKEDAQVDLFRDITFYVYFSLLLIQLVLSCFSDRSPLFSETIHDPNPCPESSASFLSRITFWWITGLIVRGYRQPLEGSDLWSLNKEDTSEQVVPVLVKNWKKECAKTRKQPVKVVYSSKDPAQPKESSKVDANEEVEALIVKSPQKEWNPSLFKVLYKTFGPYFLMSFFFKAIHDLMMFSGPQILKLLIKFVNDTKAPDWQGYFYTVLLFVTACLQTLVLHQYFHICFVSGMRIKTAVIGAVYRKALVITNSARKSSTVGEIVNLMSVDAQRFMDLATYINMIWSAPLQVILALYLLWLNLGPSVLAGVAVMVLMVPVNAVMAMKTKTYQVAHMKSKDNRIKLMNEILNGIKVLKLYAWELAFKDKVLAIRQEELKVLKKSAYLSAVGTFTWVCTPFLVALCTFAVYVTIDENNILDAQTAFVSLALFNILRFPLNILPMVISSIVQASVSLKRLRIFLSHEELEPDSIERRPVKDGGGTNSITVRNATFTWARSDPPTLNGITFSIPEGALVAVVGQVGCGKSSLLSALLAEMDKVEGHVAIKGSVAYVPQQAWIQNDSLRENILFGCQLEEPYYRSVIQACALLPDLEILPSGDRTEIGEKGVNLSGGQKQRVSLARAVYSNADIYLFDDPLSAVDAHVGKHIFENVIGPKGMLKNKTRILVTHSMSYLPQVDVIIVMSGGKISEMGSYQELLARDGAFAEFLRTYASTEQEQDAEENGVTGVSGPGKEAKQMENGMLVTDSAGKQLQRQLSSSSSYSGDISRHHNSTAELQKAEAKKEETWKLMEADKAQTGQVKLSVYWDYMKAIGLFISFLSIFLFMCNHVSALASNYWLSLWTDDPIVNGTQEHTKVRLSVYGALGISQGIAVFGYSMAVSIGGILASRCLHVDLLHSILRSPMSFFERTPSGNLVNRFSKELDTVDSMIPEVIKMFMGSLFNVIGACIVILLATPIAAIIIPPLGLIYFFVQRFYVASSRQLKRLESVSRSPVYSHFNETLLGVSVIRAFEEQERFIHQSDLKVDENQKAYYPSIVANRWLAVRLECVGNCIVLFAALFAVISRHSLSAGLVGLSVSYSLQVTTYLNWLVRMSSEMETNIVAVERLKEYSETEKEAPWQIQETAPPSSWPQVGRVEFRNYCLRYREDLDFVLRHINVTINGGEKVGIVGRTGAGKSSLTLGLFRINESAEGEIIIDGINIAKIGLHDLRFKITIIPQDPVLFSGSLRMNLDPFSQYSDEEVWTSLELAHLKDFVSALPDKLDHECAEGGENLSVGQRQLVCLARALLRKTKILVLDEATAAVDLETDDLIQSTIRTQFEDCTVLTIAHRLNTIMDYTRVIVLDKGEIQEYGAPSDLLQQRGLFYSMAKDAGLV

Activity	Compound
substrate []	COc1cccc2c1C(=O)c1c(O)c3c(c(O)c1C2=O)C[C@@](O)(C(=O)CO)C[C@@H]3O[C@H]1C[C@H](N)[C@H](O)[C@H](C)O1 [DOXORUBICIN]
substrate []	COc1cccc2c1C(=O)c1c(O)c3c(c(O)c1C2=O)C[C@@](O)(C(=O)CO)C[C@@H]3O[C@H]1C[C@H](N)[C@@H](O)[C@H](C)O1 [EPIRUBICIN]

Further lines, the compound ahead of its results:

Compound	Activity
COc1cc(NC(=O)Cc2cccc(-n3c(=O)c4c(C)onc4c4c(Cl)cccc43)c2)cc(OC)c1OC	inhibitor []
COc1cc([C@@H]2c3cc4c(cc3[C@@H](O[C@@H]3O[C@@H]5CO[C@@H](C)O[C@H]5[C@H](O)[C@H]3O)[C@H]3COC(=O)[C@H]23)OCO4)cc(OC)c1O [ETOPOSIDE]	substrate []
CC[C@]1(O)C[C@H]2CN(CCc3c([nH]c4ccccc34)[C@@](C(=O)OC)(c3cc4c(cc3OC)N(C=O)[C@H]3[C@@](O)(C(=O)OC)[C@H](OC(C)=O)[C@]5(CC)C=CCN6CC[C@]43[C@@H]65)C2)C1 [VINCRISTINE]	substrate []
